Columns and labels:
CD31, FGF and VEGF = conditions: rabbit alkaline burn; 10 days treatment; immunostaining
Procedure: (§1) The rabbits were randomly divided into an alkaline burn group (n=5) and a peptide treated group (n=5). In the alkaline burn group, normal saline was administered 4 times daily and in the peptide-treated group, Hyp-[…] peptide of 10 mg/mL was administered 4 times daily, and the left eye was used as a control group.
(§2) Tissue sections were cut into 6 μm thickness and used for immunohistochemical analysis.
(§3) First, tissue sections were fixed with 3.5% paraformaldehyde and permeated with 0.1% Triton X-100, inactivated 2% bovine serum albumin (BSA; all from Sigma, St. Louis, Mo.) and incubated overnight at 4° C. with anti-CD31(1:1,000; Abcam Inc., Cambridge, Mass.), anti-bFGF(1:1,000; Bioss Inc., Woburn, Mass.), anti-IL-1β, anti-IL-6(1:1,000; Cloud-Clone Corp., Houston, Tex.), anti-MMP-9, anti-ICMA-1, anti-TNFα, anti-macrophage/mononucleus (1:1,000; Abnova Crop., Taipei, Taiwan) and anti-VEGF-A (Abbiotec, San Diego, Calif.) primary antibody.
(§4) Thereafter, the secondary antibody was incubated for 45 minutes in the section and the immunological response was visualized with diaminobenzidine (DAB) chromogen, and the section was contrast-stained with Mayer's hematoxylin (Sigma) for 30 seconds at room temperature.
(§5) The dyed sections were photographed by a virtual microscope (NanoZoomer 2.0 RS, Hamamatsu, Japan).

[1] = tested on: macrophages, TNFα, ICAM-1, IL-1β, IL-6 and MMP-9; conditions: rabbit alkaline burn; 10 days treatment; immunostaining
Procedure: as §1, §2, §3, §4, §5

VEGF, ICAM and MCP-1 = assay: Quantitative real-time RT-PCR of retina and choroid, laser CNV model; assay type: in vivo, C57BL/6 mice; conditions: mouse, 14 days after laser, 5 μg
Procedure: In order to confirm the inhibitory effect of hydroxy proline-GQDGLAGPK on neovascularization-related gene expression, RNA was extracted using RNeasy Mini kit (Qiagen) in mixture of retina and choroid of extracted mice eyeballs, and cDNA was synthesized by using oligo(dT) primer and reverse transcriptase. PCR products were amplified using the specific primer set (COSMOGENETECH, Korea) shown in Table 1 and SYBR Green PCR 2X PreMix (Enzynomics) and for the PCR conditions, the samples were incubated at 95° C. for 10 minutes, and 40 PCR cycles at 95° C. for 15 seconds, 60° C. for 30 seconds and 72° C. for 15 seconds, were performed. Relative quantification was calculated using 2-(DDCT) method [Livak and Schmittgen, 2001; DDCT=(CT, target-CT, actin) control group (CT, target-CT, actin) control group].
After 14 days of laser irradiation in mouse, RNA was extracted from retina and choroid to analyze the gene expression by real-time RT-PCR.

[2] = tested on: VEGF, VEGFR-1 (Flt-1), VEGR-2 (Flk-1) and Angiopoietin 2; conditions: mouse, 14 days after laser, 5 μg
Procedure: C57BL/6 mice were purchased from Orient Bio and the animal experiments was carried out in accordance with the guidelines approved by the University of Inje (No, 2013-053) and ARVO regarding animal use for eye and vision studies. 6-week-old C57BL/6 mice were treated with diode green laser (532 nm, 150 mW, 0.1 sec, […], photocoagulator) to damage the retinal optic nerve area. Immediately after laser irradiation, CP1, CPII and positive control group Avastin were dissolved in PBS and administered […] each per a day in the eyeball for 5 days. The above experiment for each experiment group was performed using both eyes of five mice each.

corneal epithelial cell = assay: Corneal epithelial cell detachment (H&E), dry eye model; assay type: in vivo, NOD.B10.H2b mice
Procedure: (§6) NOD.B10.H2^b mice were purchased from Jackson Laboratory (Bar Harbor, Me., USA). Animal experiments were carried out in accordance with the guidelines approved by the University of Inje (No.; 2014-029) and ARVO regarding animal use for eye and vision research. NOD.B10.H2^b mice at 12-16 weeks old were exposed to 40-50% ambient humidity and ventilation using a fan for 18 hours a day as dry stress and subcutaneously injected with 0.5 mg/0.2 mL muscarinic receptor blocker. In addition, scopolamine hydrobromide (Sigma-Aldrich, St. Louis, Mo.) was injected alternately to the […] hips four times a day for 10 days at 9 am, […].
(§7) After 10 days of ocular dry stress, the scopolamine injection was stopped, and switched to a normal humidity and temperature environment and the dry stress was removed, 10 mg/ml Hyp-[…] and collagen were dissolved in normal saline to administer 5 μL each 5 times a day for 10 days, and normal saline and 0.1% HA were administered to the eyeball 5 times a day for 10 days. Three mice were used in each of the six experimental groups using both eyes of the mice and all experiments were repeated.

[3] = tested on: TNF-α, ICAM-1, VCAM-1, MMP-2 and MMP-9; conditions: 10 days of treatment after removal of dry stress
Procedure: as §6, §7

Substance: hydroxy proline-GQDGLAGPK [Hyp-GQDGLAGPK]
- expression of CD31, FGF and VEGF in epithelium, subepithelium and matrix (CD31, FGF and VEGF): significant decreases
- expression of MMP-9 in the cornea [1]: inhibited
- expression of inflammatory factors TNFα, IL-1β, IL-6 and ICAM-1 [1]: decreased
- expression of macrophages in the cornea [1]: effectively inhibited
- MCP-1 gene expression in retina and choroid (VEGF, ICAM and MCP-1; laser-treated group increased about 10 times): significantly decreased
- VEGF gene expression in retina and choroid (VEGF, ICAM and MCP-1; laser-treated group increased about 55 times): decreased to the level similar to that of the laser-untreated group
- ICAM gene expression in retina and choroid (VEGF, ICAM and MCP-1; laser-treated group increased about 300 times): significantly decreased
- protein expression of VEGF, VEGFR-1, -2 and Angiopoietin 2 compared with Avastin [2]: almost similar to that of Avastin
- protein expression of VEGF, VEGFR-1, VEGFR-2 and Angiopoietin 2 in retina and choroid ([2]; immunoblotting): markedly decreased
- reduction of corneal epithelial cell detachment vs CsA group (corneal epithelial cell; 10 days of treatment): 75%
- reduction of corneal epithelial cell detachment vs DQS group (corneal epithelial cell; 10 days of treatment): 60%
- reduction of corneal epithelial cell detachment vs HA group (corneal epithelial cell; 10 days of treatment): 77.8%
- reduction of corneal epithelial cell detachment vs collagen group (corneal epithelial cell; 10 days of treatment): 55.6%
- reduction of corneal epithelial cell detachment vs dry stress (DS 10D) (corneal epithelial cell; 10 days of treatment): 83.3%
- reduction of corneal epithelial cell detachment vs normal saline group (corneal epithelial cell; 10 days of treatment): 71.4%
- corneal epithelial cell detachment (corneal epithelial cell; 10 days of treatment after removal of dry stress, DS 10D 2.29±0.57): 0.38±0.17 /0.1 mm^2
- expression of inflammation-related factors in the lacrimal gland compared with CsA, DQS and HA treated mice [3]: significantly inhibited
- expression of inflammation-related factors (TNF-α, ICAM-1, VCAM-1, MMP-2, MMP-9) in the lacrimal gland ([3]; immunostaining): markedly reduced

— US10532084B2, “Chondrocyte extracellular matrix-derived peptide” (EYEBIO KOREA, priority 2016, dated 2020)
